Source: PubChem BioAssay AID2060511 (Molecular Pharmacology Branch, DTP, NCI, 2025)

System: 422866-222-R5-J1-PDC spheroids with HUVEC/MSC, viability
Test: Anticancer human tumor 422866-222-R5-J1-PDC patient-derived pancreatic adenocarcinoma cell line growth inhibition [GQUAD]
Details: for IC50: curve of first compound; for viability, T/C: stronger effect = lower value
Excerpt: DNA G-quadruplex Stabilizer Agents in Combinations in Complex Spheroids
A high-throughput screen of multi-cell type tumor spheroids was designed to identify active combinations of DNA G-quadruplex stabilizer agents and targeted small molecules. Complex spheroids include a stromal component modeled by human endothelial cells (HUVEC) and fibroblasts modeled by human mesenchymal stem cells (MSCs). The concentration ranges selected for each drug and investigational agent were based upon clinically achievable concentrations if the clinical Cmax of the agent was known.
Compounds. The drugs and investigational agents: pidnarulex (CX-5461; NSC782164), APTO-253 (NSC789042), BRACO-19 (NSC847499), peposertib (NSC802822), ceralasertib (NSC780249), elimusertib (NSC800525), camonsertib (NSC841442), AZD-1390 (NSC803789), olaparib (NSC753686), talazoparib (NSC767125), ART-558 (NSC835418), sotorasib (NSC818433), MRTX-1133 (NSC836407), SN-38 (NSC673596), topotecan (NSC609699), etoposide (NSC141540), doxorubicin (NSC123127), gemcitabine (NSC613327), 5-fluorouracil (NSC19893), paclitaxel (NSC125973), vemurafenib (NSC761431), panobinostat (NSC761190), R-306465 (JNJ-16241199; NSC773264), adavosertib (NSC754352), TP-3654 (NSC805149), carboplatin (NSC241240), KSQ-4279 (NSC840948), and staurosporine (NSC755774) were obtained from the National Cancer Institute (NCI) Developmental Therapeutics Program Chemical Repository (34). The FDA-approved anticancer drug set is available from the NCI Developmental Therapeutics Program. […] The stock solutions were prepared in dimethyl sulfoxide (DMSO, Sigma-Aldrich, St. Louis, MO, cat. D2650) at 800-fold the tested concentration and stored at -70 degrees C prior to their use. All drugs and investigational agents were tested over a range starting from a high concentration at or near the clinical Cmax and decreasing in half-log increments. If the clinical Cmax for an agent had not been determined, the highest concentration tested was 10 microM.
2.3 Cell Culture. All cells were maintained in an incubator at 37 degrees C and 5% CO2 with 95% humidity. The PDC lines were cultured according to standard operating procedures established by the NCI PDMR. All PDCs were thawed and cultured in Matrigel-coated flasks prepared with a working solution of 1X Ham's F-12 nutrient mix, without supplementation (Invitrogen, cat. 11765054), 100 U/mL penicillin-streptomycin (Invitrogen, cat. 15140122), and 2.5% Matrigel (Corning Inc., cat. 354248) for the first three passages. The 857933-349-R-J2-PDC line was cultured in 6C/Colon 1B media, which includes advanced DMEM/F-12 (Thermo Fisher Scientific, cat. 12634028), 10 mM HEPES (Thermo Fisher Scientific, cat. 15630080), 1X GlutaMAX supplement (Thermo Fisher Scientific, cat. 35050061), 0.1 mg/mL primocin (InvivoGen, cat. ant-pm-2), 10% defined fetal bovine serum, heat inactivated (HyClone Laboratories Inc., cat. SH30070.03HI), 50% L-WRN conditioned media (ATCC, cat. CRL-3276), 1.25 mM N-Acetyl-L-cysteine (Sigma-Aldrich, cat. A9165), 10 mM nicotinamide (Sigma-Aldrich, cat. N0636), 1X B-27 supplement (Thermo Fisher Scientific, cat. 17504044), 1X N-2 supplement (Thermo Fisher Scientific, cat. 17502048), 10 microM Y-27632 dihydrochloride (Tocris Bioscience, cat. 1254), and 50 ng/mL human EGF recombinant protein (Thermo Fisher Scientific, cat. PHG0311). The 485176-168-R4-J1-PDC line was cultured in Panc media, which includes all 6C/Colon 1B media components plus 100 ng/mL human FGF-10 (Thermo Fisher Scientific, cat. 100-26), 500 nM SB-431542 (Selleckchem, cat. S1067), and gastrin (Tocris, cat. 3006).
[…]

[1] = second compound 0.0316 µM, first compound 0.0316 µM
[2] = second compound 0.0316 µM, first compound 0.1 µM
[3] = second compound 0.0316 µM, first compound 0.316 µM
[4] = second compound 0.0316 µM, first compound 1 µM
[5] = second compound 0.0316 µM, first compound 3.16 µM
[6] = second compound 0.0316 µM, first compound 10 µM
[7] = second compound 0.1 µM, first compound 0.0316 µM
[8] = second compound 0.1 µM, first compound 0.1 µM
[9] = second compound 0.1 µM, first compound 0.316 µM
[10] = second compound 0.1 µM, first compound 1 µM
[11] = second compound 0.1 µM, first compound 3.16 µM
[12] = second compound 0.1 µM, first compound 10 µM
[13] = second compound 0.316 µM, first compound 0.0316 µM
[14] = second compound 0.316 µM, first compound 0.1 µM
[15] = second compound 0.316 µM, first compound 0.316 µM
[16] = second compound 0.316 µM, first compound 1 µM
[17] = second compound 0.316 µM, first compound 3.16 µM
[18] = second compound 0.316 µM, first compound 10 µM
[19] = second compound 1 µM, first compound 0.0316 µM
[20] = second compound 1 µM, first compound 0.1 µM
[21] = second compound 1 µM, first compound 0.316 µM
[22] = second compound 1 µM, first compound 1 µM
[23] = second compound 1 µM, first compound 3.16 µM
[24] = second compound 1 µM, first compound 10 µM
[25] = second compound 3.16 µM, first compound 0.0316 µM
[26] = second compound 3.16 µM, first compound 0.1 µM
[27] = second compound 3.16 µM, first compound 0.316 µM
[28] = second compound 3.16 µM, first compound 1 µM
[29] = second compound 3.16 µM, first compound 3.16 µM
[30] = second compound 3.16 µM, first compound 10 µM
[31] = second compound 10 µM, first compound 0.0316 µM
[32] = second compound 10 µM, first compound 0.1 µM
[33] = second compound 10 µM, first compound 0.316 µM
[34] = second compound 10 µM, first compound 1 µM
[35] = second compound 10 µM, first compound 3.16 µM
[36] = second compound 10 µM, first compound 10 µM
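Note: spheroids exposed to compounds for seven days before reading.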
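Throughout, for viability, T/C: percent viability relative to DMSO vehicle control taken as 100%.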

Structure (SMILES): O=C(NO)c1cnc(N2CCN(S(=O)(=O)c3ccc4ccccc4c3)CC2)nc1 + CN(C)c1ccc(Nc2c3ccc(NC(=O)CCN4CCCC4)cc3nc3cc(NC(=O)CCN4CCCC4)ccc23)cc1
- IC50 (second compound 0.0316 µM): 0.792 µM
- IC50 (second compound 0.1 µM): 0.944 µM
- IC50 (second compound 0.316 µM): 0.838 µM
- IC50 (second compound 1 µM): 0.856 µM
- IC50 (second compound 3.16 µM): 0.566 µM
- IC50 (second compound 10 µM): 1.11 µM
- viability, T/C [1]: 93.7%
- viability, T/C [2]: 115%
- viability, T/C [3]: 79.9%
- viability, T/C [4]: 37.4%
- viability, T/C [5]: 29.4%
- viability, T/C [6]: 1.05%
- viability, T/C [7]: 100%
- viability, T/C [8]: 101%
- viability, T/C [9]: 89.8%
- viability, T/C [10]: 38.5%
- viability, T/C [11]: 32.1%
- viability, T/C [12]: 1.23%
- viability, T/C [13]: 98%
- viability, T/C [14]: 111%
- viability, T/C [15]: 67.4%
- viability, T/C [16]: 37.4%
- viability, T/C [17]: 37.1%
- viability, T/C [18]: 1.09%
- viability, T/C [19]: 92.5%
- viability, T/C [20]: 92.9%
- viability, T/C [21]: 66.8%
- viability, T/C [22]: 38.1%
- viability, T/C [23]: 34%
- viability, T/C [24]: 1.34%
- viability, T/C [25]: 87.6%
- viability, T/C [26]: 94.6%
- viability, T/C [27]: 54.5%
- viability, T/C [28]: 30.7%
- viability, T/C [29]: 36.1%
- viability, T/C [30]: 1.79%
- viability, T/C [31]: 89.6%
- viability, T/C [32]: 88.2%
- viability, T/C [33]: 72.2%
- viability, T/C [34]: 38.4%
- viability, T/C [35]: 41.3%
- viability, T/C [36]: 1.96%

Structure (SMILES): CC(C)n1c(=O)n(C)c2cnc3cc(F)c(-c4ccc(OCCCN5CCCCC5)nc4)cc3c21 + Cc1[nH]c2ccc(F)cc2c1-c1nc2c3cccnc3c3ncccc3c2[nH]1
- IC50 (second compound 0.0316 µM): > 10 µM
- IC50 (second compound 0.1 µM): > 10 µM
- IC50 (second compound 0.316 µM): > 10 µM
- IC50 (second compound 1 µM): > 10 µM
- IC50 (second compound 3.16 µM): > 10 µM
- IC50 (second compound 10 µM): > 10 µM
- viability, T/C [1]: 86.9%
- viability, T/C [2]: 99.4%
- viability, T/C [3]: 94%
- viability, T/C [4]: 91.1%
- viability, T/C [5]: 89.2%
- viability, T/C [6]: 52%
- viability, T/C [7]: 99.4%
- viability, T/C [8]: 114%
- viability, T/C [9]: 112%
- viability, T/C [10]: 83.2%
- viability, T/C [11]: 113%
- viability, T/C [12]: 73.5%
- viability, T/C [13]: 93.8%
- viability, T/C [14]: 90.6%
- viability, T/C [15]: 102%
- viability, T/C [16]: 92.1%
- viability, T/C [17]: 92.2%
- viability, T/C [18]: 68.5%
- viability, T/C [19]: 95.4%
- viability, T/C [20]: 89.2%
- viability, T/C [21]: 91.3%
- viability, T/C [22]: 91.9%
- viability, T/C [23]: 117%
- viability, T/C [24]: 64.9%
- viability, T/C [25]: 78.3%
- viability, T/C [26]: 88.2%
- viability, T/C [27]: 105%
- viability, T/C [28]: 94.7%
- viability, T/C [29]: 98%
- viability, T/C [30]: 63.9%
- viability, T/C [31]: 73%
- viability, T/C [32]: 95.1%
- viability, T/C [33]: 91.7%
- viability, T/C [34]: 80.9%
- viability, T/C [35]: 85.2%
- viability, T/C [36]: 54.5%

Structure (SMILES): Cc1cccc(N(C)C(=O)C2C(O)CCN2c2nc(C)cc(C(F)(F)F)c2C#N)c1 (stereo unspecified) + Cc1[nH]c2ccc(F)cc2c1-c1nc2c3cccnc3c3ncccc3c2[nH]1
- IC50 (second compound 0.0316 µM): > 10 µM
- IC50 (second compound 0.1 µM): > 10 µM
- IC50 (second compound 0.316 µM): > 10 µM
- IC50 (second compound 1 µM): > 10 µM
- IC50 (second compound 3.16 µM): > 10 µM
- IC50 (second compound 10 µM): > 10 µM
- viability, T/C [1]: 107%
- viability, T/C [2]: 95.2%
- viability, T/C [3]: 102%
- viability, T/C [4]: 79.5%
- viability, T/C [5]: 116%
- viability, T/C [6]: 108%
- viability, T/C [7]: 88.8%
- viability, T/C [8]: 92.2%
- viability, T/C [9]: 116%
- viability, T/C [10]: 82.8%
- viability, T/C [11]: 99.9%
- viability, T/C [12]: 107%
- viability, T/C [13]: 89.9%
- viability, T/C [14]: 92.9%
- viability, T/C [15]: 97.4%
- viability, T/C [16]: 98.3%
- viability, T/C [17]: 115%
- viability, T/C [18]: 114%
- viability, T/C [19]: 92.7%
- viability, T/C [20]: 101%
- viability, T/C [21]: 111%
- viability, T/C [22]: 103%
- viability, T/C [23]: 120%
- viability, T/C [24]: 93.1%
- viability, T/C [25]: 80.2%
- viability, T/C [26]: 96.1%
- viability, T/C [27]: 89.6%
- viability, T/C [28]: 84.1%
- viability, T/C [29]: 104%
- viability, T/C [30]: 96.4%
- viability, T/C [31]: 82.5%
- viability, T/C [32]: 86.8%
- viability, T/C [33]: 100%
- viability, T/C [34]: 86.9%
- viability, T/C [35]: 90.1%
- viability, T/C [36]: 96.9%
